≈ marks a conversion by molar mass, not a printed value. Like-named read-outs stand apart in the source and are kept apart here.
How the values were obtained:
Past. multocida PA1 = experiment: MIC against veterinary bacteria in vitro; settings: Pasteurella multocida, PA1, 18 h
Experimental: (§1) The activity of the compounds of the Examples against various veterinarily important bacteria, was assayed in vitro using two-fold serial dilutions in Diagnostic Sensitivity Test Agar inoculated with 10^4 organisms.

S. dublin S7 = experiment: MIC against veterinary bacteria in vitro; settings: Salmonella enterica, S7, 18 h
Experimental: as §1

[1] = system: Haemophilus influenzae Wy21; experiment: MIC against human bacteria in vitro; format: cell-based
M. suipneumoniae Str. 11 = experiment: MIC against mycoplasma in vitro; format: cell-based; settings: Mesomycoplasma hyopneumoniae, 144 h; M. suipneumoniae Str. 11; 6 days, 37° C.; read-out: MIC
M. suipneumoniae MS 16 = experiment: MIC against mycoplasma in vitro; format: cell-based; settings: Mesomycoplasma hyopneumoniae, MS16, 144 h; M. suipneumoniae MS 16; 6 days, 37° C.; read-out: MIC
Staph. aureus Russell = experiment: MIC against human bacteria in vitro; format: cell-based; settings: Staphylococcus aureus; Staph. aureus Russell; 5% chocolated horse blood agar, 18 hours; read-out: MIC
Strep. spp. 64/848-C = experiment: MIC against human bacteria in vitro; format: cell-based
[2] = system: Strep. pyogenes R80/421-A; experiment: MIC against human bacteria in vitro; format: cell-based; settings: Streptococcus pyogenes; Strep. pyogenes R80/421-A; 5% chocolated horse blood agar, 18 hours; read-out: MIC
[3] = system: M. hyosynoviae ATCC 25591; experiment: MIC against mycoplasma in vitro; format: cell-based; settings: 144 h; M. hyosynoviae ATCC 25591; 6 days, 37° C.; read-out: MIC
Staph. aureus W2827 = experiment: MIC against human bacteria in vitro; format: cell-based; settings: Staphylococcus aureus; Staph. aureus W2827; 5% chocolated horse blood agar, 18 hours; read-out: MIC
P. mirabilis 889 = experiment: MIC against human bacteria in vitro; format: cell-based; settings: Proteus mirabilis; P. mirabilis 889; 5% chocolated horse blood agar, 18 hours; read-out: MIC
Strep. agalactiae SPA1 = experiment: MIC against veterinary bacteria in vitro; settings: Streptococcus agalactiae, SPA1, 18 h
Experimental: as §1

M. hyorhinis ATCC 25021 = experiment: MIC against mycoplasma in vitro; format: cell-based; settings: Mesomycoplasma hyorhinis, ATCC25021, 144 h
[4] = system: Ps. aeruginosa NCTC 10662; experiment: MIC against human bacteria in vitro; format: cell-based; settings: Pseudomonas aeruginosa, NCTC10662; Ps. aeruginosa NCTC 10662; 5% chocolated horse blood agar, 18 hours; read-out: MIC
[5] = system: M. suipneumoniae ATCC 25095; experiment: MIC against mycoplasma in vitro; format: cell-based; settings: Mesomycoplasma hyopneumoniae, ATCC25095, 144 h; M. suipneumoniae ATCC 25095; 6 days, 37° C.; read-out: MIC
Strep. uberis SPU1 = experiment: MIC against veterinary bacteria in vitro; settings: Streptococcus uberis, SPU1, 18 h
Experimental: as §1

K. aerogenes A = experiment: MIC against human bacteria in vitro; format: cell-based; settings: Klebsiella aerogenes; K. aerogenes A; 5% chocolated horse blood agar, 18 hours; read-out: MIC
Bacillus subtilis 6633 = experiment: MIC against human bacteria in vitro; format: cell-based
[6] = system: M. bovigenitalium ATCC 14173; experiment: MIC against mycoplasma in vitro; format: cell-based; settings: 144 h
M. suipneumoniae NB12 = experiment: MIC against mycoplasma in vitro; format: cell-based; settings: Mesomycoplasma hyopneumoniae, 144 h; M. suipneumoniae NB12; Friis broth, 0.9% agarose, 6 days, 37° C.; read-out: MIC
Staph. aureus Oxford = experiment: MIC against human bacteria in vitro; format: cell-based; settings: Staphylococcus aureus; Staph. aureus Oxford; 5% chocolated horse blood agar, 18 hours; read-out: MIC
[7] = system: M. suipneumoniae J2206/183^b; experiment: MIC against mycoplasma in vitro; format: cell-based; settings: Mesomycoplasma hyopneumoniae, 144 h; M. suipneumoniae J2206/183^b; 6 days, 37° C.; read-out: MIC
M. suipneumoniae JF 435 = experiment: MIC against mycoplasma in vitro; format: cell-based; settings: Mesomycoplasma hyopneumoniae, JF435, 144 h; M. suipneumoniae JF 435; 6 days, 37° C.; read-out: MIC
[8] = system: Corynebacterium pyogenes CY1; experiment: MIC against veterinary bacteria in vitro; settings: CY1, 18 h
Experimental: as §1

[9] = system: Strep. suis (group D) SPS11; experiment: MIC against veterinary bacteria in vitro; settings: Streptococcus suis, 18 h
Experimental: as §1

Strep. agalactiae 2788-B = experiment: MIC against human bacteria in vitro; format: cell-based; settings: Streptococcus agalactiae; Strep. agalactiae 2788-B; 5% chocolated horse blood agar, 18 hours; read-out: MIC
[10] = system: Neisseria catarrhalis 1502; experiment: MIC against human bacteria in vitro; format: cell-based; settings: Neisseria catarrhalis 1502; 5% chocolated horse blood agar, 18 hours; read-out: MIC
Strep. faecalis I = experiment: MIC against human bacteria in vitro; format: cell-based; settings: Enterococcus faecalis; Strep. faecalis I; 5% chocolated horse blood agar, 18 hours; read-out: MIC
E. coli ESS = experiment: MIC against human bacteria in vitro; format: cell-based; settings: Escherichia coli; E. coli ESS; 5% chocolated horse blood agar, 18 hours; read-out: MIC
[11] = system: Corynebacterium xerosis 9755; experiment: MIC against human bacteria in vitro; format: cell-based; settings: Corynebacterium xerosis 9755; 5% chocolated horse blood agar, 18 hours; read-out: MIC
Sarcina lutea 8340 = experiment: MIC against human bacteria in vitro; format: cell-based; settings: Micrococcus luteus; Sarcina lutea 8340; 5% chocolated horse blood agar, 18 hours; read-out: MIC
[12] = system: Staph. aureus B4 (pen. resistant); experiment: MIC against veterinary bacteria in vitro; settings: Staphylococcus aureus, 18 h
Experimental: as §1

M. dispar NCTC 10125 = experiment: MIC against mycoplasma in vitro; format: cell-based; settings: 144 h
[13] = system: Pasteurella multocida 1633; experiment: MIC against human bacteria in vitro; format: cell-based; settings: Pasteurella multocida 1633; 5% chocolated horse blood agar, 18 hours; read-out: MIC
M. suipneumoniae TAM 6N = experiment: MIC against mycoplasma in vitro; format: cell-based; settings: Mesomycoplasma hyopneumoniae, TAM6N, 144 h; M. suipneumoniae TAM 6N; 6 days, 37° C.; read-out: MIC

Compound	MIC (Past. multocida PA1)	MIC (S. dublin S7)	MIC (M. suipneumoniae Str. 11)	MIC (M. suipneumoniae MS 16)	MIC (Staph. aureus Russell)	MIC [2]	MIC [3]	MIC (Staph. aureus W2827)	MIC (P. mirabilis 889)	MIC (Strep. agalactiae SPA1)	MIC [4]	MIC [5]	MIC (Strep. uberis SPU1)	MIC (K. aerogenes A)	MIC (M. suipneumoniae NB12)	MIC (Staph. aureus Oxford)	MIC [7]	MIC (M. suipneumoniae JF 435)	MIC [8]	MIC [9]	further results
C/C(=C\c1ncc(-c2ccc(CO)cc2)o1)C[C@@H]1OC[C@H](C[C@@H]2O[C@H]2[C@@H](C)[C@H](C)O)[C@@H](O)[C@H]1O [Example 13, 5-p-Hydroxymethylphenyl-2-(1-normon-2-yl) oxazole A]	2.5 µg/mL (≈ 5.28 µM)	> 80 µg/mL	0.1 µg/mL (≈ 0.211 µM)	0.1 µg/mL (≈ 0.211 µM)	4 µg/mL (≈ 8.45 µM)	4 µg/mL (≈ 8.45 µM)	0.25 µg/mL (≈ 0.528 µM)	4 µg/mL (≈ 8.45 µM)	> 128 µg/mL	10 µg/mL (≈ 21.1 µM)	> 128 µg/mL	0.25 µg/mL (≈ 0.528 µM)	0.312 µg/mL (≈ 0.659 µM)	> 128 µg/mL	0.1 µg/mL (≈ 0.211 µM)	4 µg/mL (≈ 8.45 µM)	0.25 µg/mL (≈ 0.528 µM)	0.25 µg/mL (≈ 0.528 µM)	> 80 µg/mL	10 µg/mL (≈ 21.1 µM)	MIC ([1]; Haemophilus influenzae, WY21, 18 h): 1 µg/mL (≈ 2.11 µM); MIC (Strep. spp. 64/848-C; 18 h): 1 µg/mL (≈ 2.11 µM); MIC (M. hyorhinis ATCC 25021): 0.1 µg/mL (≈ 0.211 µM); MIC (Bacillus subtilis 6633; Bacillus subtilis, 6633, 18 h): 1 µg/mL (≈ 2.11 µM); MIC [6]: 0.025 µg/mL (≈ 0.0528 µM); MIC (Strep. agalactiae 2788-B): 2 µg/mL (≈ 4.22 µM); MIC [10]: 4 µg/mL (≈ 8.45 µM); MIC (Strep. faecalis I): > 128 µg/mL; MIC (E. coli ESS): 2 µg/mL (≈ 4.22 µM); MIC [11]: 64 µg/mL (≈ 135 µM); MIC (Sarcina lutea 8340): 128 µg/mL (≈ 270 µM); MIC [12]: 1.25 µg/mL (≈ 2.64 µM); MIC (M. dispar NCTC 10125): 0.05 µg/mL (≈ 0.106 µM); MIC [13]: 2 µg/mL (≈ 4.22 µM); MIC (M. suipneumoniae TAM 6N): 0.25 µg/mL (≈ 0.528 µM)
C/C(=C\c1ncc(CCCCCCCC(=O)O)o1)C[C@@H]1OC[C@H](C[C@@H]2O[C@H]2[C@@H](C)[C@H](C)O)[C@@H](O)[C@H]1O [Example 12, Sodium 8-[2-(1-normon-2-yl)-5-oxazolyl]-octanoate A]	2.5 µg/mL	> 40 µg/mL	10 µg/mL	10 µg/mL	8 µg/mL	16 µg/mL	5 µg/mL	8 µg/mL	> 16 µg/mL	20 µg/mL	> 16 µg/mL	10 µg/mL	0.625 µg/mL	> 16 µg/mL	> 10 µg/mL	8 µg/mL	> 10 µg/mL	> 10 µg/mL	> 40 µg/mL	20 µg/mL	MIC ([1]; Haemophilus influenzae Wy21, 5% chocolated horse blood agar, 18 hours, read-out: MIC): 2 µg/mL; MIC (Strep. spp. 64/848-C; Strep. spp. 64/848-C, 5% chocolated horse blood agar, 18 hours, read-out: MIC): 4 µg/mL; MIC (M. hyorhinis ATCC 25021; M. hyorhinis ATCC 25021, 6 days, 37° C., read-out: MIC): 5 µg/mL; MIC (Bacillus subtilis 6633; Bacillus subtilis 6633, 5% chocolated horse blood agar, 18 hours, read-out: MIC): 4 µg/mL; MIC ([6]; M. bovigenitalium ATCC 14173, 6 days, 37° C., read-out: MIC): 1 µg/mL; MIC (Strep. agalactiae 2788-B): 16 µg/mL; MIC [10]: 16 µg/mL; MIC (Strep. faecalis I): > 16 µg/mL; MIC (E. coli ESS): > 16 µg/mL; MIC [11]: > 16 µg/mL; MIC (Sarcina lutea 8340): > 16 µg/mL; MIC [12]: 2.5 µg/mL; MIC (M. dispar NCTC 10125; M. dispar NCTC 10125, 6 days, 37° C., read-out: MIC): 5 µg/mL; MIC [13]: 4 µg/mL; MIC (M. suipneumoniae TAM 6N): > 10 µg/mL
